Measurements from ChEMBL document CHEMBL2380247, “Synthesis and biological evaluation of novel aliphatic amido-quaternary ammonium salts for anticancer chemotherapy: part II” (2013).

Legend:
Format in all cases: functional
HCT-15 [1] = assay: Antiproliferative activity against human HCT15 cells at 0.3 uM by SRB assay
PC-3 [2] = assay: Antiproliferative activity against human PC3 cells at 10 uM by SRB assay
PC-3 [3] = assay: Antiproliferative activity against human PC3 cells at 0.1 uM by SRB assay
NUGC-3 [4] = assay: Antiproliferative activity against human NUGC3 cells at 10 uM by SRB assay
ACHN [5] = assay: Antiproliferative activity against human ACHN cells by SRB assay
ACHN [6] = assay: Antiproliferative activity against human ACHN cells at 3 uM by SRB assay
PC-3 [7] = assay: Antiproliferative activity against human PC3 cells at 1 uM by SRB assay
MDA-MB-231 [8] = assay: Antiproliferative activity against human MDA-MB-231 cells at 3 uM by SRB assay
ACHN [9] = assay: Antiproliferative activity against human ACHN cells at 1 uM by SRB assay
HCT-15 [10] = assay: Antiproliferative activity against human HCT15 cells by SRB assay
MDA-MB-231 [11] = assay: Antiproliferative activity against human MDA-MB-231 cells at 0.1 uM by SRB assay
HCT-15 [12] = assay: Antiproliferative activity against human HCT15 cells at 1 uM by SRB assay
NUGC-3 [13] = assay: Antiproliferative activity against human NUGC3 cells at 0.1 uM by SRB assay
ACHN [14] = assay: Antiproliferative activity against human ACHN cells at 10 uM by SRB assay
ACHN [15] = assay: Antiproliferative activity against human ACHN cells at 0.3 uM by SRB assay
MDA-MB-231 [16] = assay: Antiproliferative activity against human MDA-MB-231 cells at 0.3 uM by SRB assay
NCI-H23 [17] = assay: Antiproliferative activity against human NCI-H23 cells at 0.3 uM by SRB assay
HCT-15 [18] = assay: Antiproliferative activity against human HCT15 cells at 3 uM by SRB assay
ACHN [19] = assay: Antiproliferative activity against human ACHN cells at 0.1 uM by SRB assay
NCI-H23 [20] = assay: Antiproliferative activity against human NCI-H23 cells at 3 uM by SRB assay
NUGC-3 [21] = assay: Antiproliferative activity against human NUGC3 cells at 1 uM by SRB assay
NUGC-3 [22] = assay: Antiproliferative activity against human NUGC3 cells by SRB assay
NCI-H23 [23] = assay: Antiproliferative activity against human NCI-H23 cells by SRB assay
PC-3 [24] = assay: Antiproliferative activity against human PC3 cells at 0.3 uM by SRB assay
NCI-H23 [25] = assay: Antiproliferative activity against human NCI-H23 cells at 1 uM by SRB assay
MDA-MB-231 [26] = assay: Antiproliferative activity against human MDA-MB-231 cells at 1 uM by SRB assay
HCT-15 [27] = assay: Antiproliferative activity against human HCT15 cells at 0.1 uM by SRB assay
PC-3 [28] = assay: Antiproliferative activity against human PC3 cells at 3 uM by SRB assay
MDA-MB-231 [29] = assay: Antiproliferative activity against human MDA-MB-231 cells by SRB assay
NCI-H23 [30] = assay: Antiproliferative activity against human NCI-H23 cells at 0.1 uM by SRB assay
HCT-15 [31] = assay: Antiproliferative activity against human HCT15 cells at 10 uM by SRB assay
NUGC-3 [32] = assay: Antiproliferative activity against human NUGC3 cells at 0.3 uM by SRB assay
MDA-MB-231 [33] = assay: Antiproliferative activity against human MDA-MB-231 cells at 10 uM by SRB assay
PC-3 [34] = assay: Antiproliferative activity against human PC3 cells by SRB assay
NCI-H23 [35] = assay: Antiproliferative activity against human NCI-H23 cells at 10 uM by SRB assay
NUGC-3 [36] = assay: Antiproliferative activity against human NUGC3 cells at 3 uM by SRB assay

| GI50 (ACHN [5]) [nM] | GI50 (HCT-15 [10]) [nM] | Compound | growth, % of control at 0.3 µM (HCT-15 [1]) [%] | growth, % of control at 10 µM (PC-3 [2]) [%] | growth, % of control at 0.1 µM (PC-3 [3]) [%] | growth, % of control at 10 µM (NUGC-3 [4]) [%] | growth, % of control at 3 µM (ACHN [6]) [%] | growth, % of control at 1 µM (PC-3 [7]) [%] | growth, % of control at 3 µM (MDA-MB-231 [8]) [%] | growth, % of control at 1 µM (ACHN [9]) [%] | growth, % of control at 0.1 µM (MDA-MB-231 [11]) [%] | growth, % of control at 1 µM (HCT-15 [12]) [%] | growth, % of control at 0.1 µM (NUGC-3 [13]) [%] | growth, % of control at 10 µM (ACHN [14]) [%] | growth, % of control at 0.3 µM (ACHN [15]) [%] | growth, % of control at 0.3 µM (MDA-MB-231 [16]) [%] | growth, % of control at 0.3 µM (NCI-H23 [17]) [%] | growth, % of control at 3 µM (HCT-15 [18]) [%] | growth, % of control at 0.1 µM (ACHN [19]) [%] | growth, % of control at 3 µM (NCI-H23 [20]) [%] | other results |
| --- | --- | --- | --- | --- | --- | --- | --- | --- | --- | --- | --- | --- | --- | --- | --- | --- | --- | --- | --- | --- | --- |
| 1890 | > 10000 | C=CC[N+](C)(C)CCCN(C)C(=O)CCCCCCCCCCCCC | 82.4 | -20.4 | 93.3 | -1.98 | 67 | 35.4 | 48.3 | 96 | 99.8 | 92.8 | 80.1 | 14.3 | 96.8 | 98.9 | 85.7 | 79.4 | 104 | 12.2 | growth, % of control at 1 µM (NUGC-3 [21]): 32.1%; GI50 (NUGC-3 [22]): 280 nM; GI50 (NCI-H23 [23]): 460 nM; growth, % of control at 0.3 µM (PC-3 [24]): 82.3%; growth, % of control at 1 µM (NCI-H23 [25]): 55.6%; growth, % of control at 1 µM (MDA-MB-231 [26]): 86.8%; growth, % of control at 0.1 µM (HCT-15 [27]): 90.4%; growth, % of control at 3 µM (PC-3 [28]): -10.8%; GI50 (MDA-MB-231 [29]): 1350 nM; growth, % of control at 0.1 µM (NCI-H23 [30]): 88.5%; growth, % of control at 10 µM (HCT-15 [31]): 53.2%; growth, % of control at 0.3 µM (NUGC-3 [32]): 82.8%; growth, % of control at 10 µM (MDA-MB-231 [33]): 15.5%; GI50 (PC-3 [34]): 310 nM; growth, % of control at 10 µM (NCI-H23 [35]): -7.17%; growth, % of control at 3 µM (NUGC-3 [36]): 4.58% |
| 580 | 1010 | CCCCCCCCCCCCCCCC(=O)N(C)CC[N+](C)(C)CC | 85.9 | -18.9 | 90 | -11.1 | 10.2 | 10.8 | 21.9 | 46.3 | 102 | 70.5 | 99.1 | -14.5 | 95 | 101 | 84.4 | 37.8 | 110 | 30.6 | growth, % of control at 1 µM (NUGC-3 [21]): 38.2%; GI50 (NUGC-3 [22]): 410 nM; GI50 (NCI-H23 [23]): 580 nM; growth, % of control at 0.3 µM (PC-3 [24]): 84%; growth, % of control at 1 µM (NCI-H23 [25]): 53.8%; growth, % of control at 1 µM (MDA-MB-231 [26]): 59.1%; growth, % of control at 0.1 µM (HCT-15 [27]): 93.4%; growth, % of control at 3 µM (PC-3 [28]): -14.5%; GI50 (MDA-MB-231 [29]): 660 nM; growth, % of control at 0.1 µM (NCI-H23 [30]): 91.2%; growth, % of control at 10 µM (HCT-15 [31]): 17.8%; growth, % of control at 0.3 µM (NUGC-3 [32]): 91.8%; growth, % of control at 10 µM (MDA-MB-231 [33]): -4.7%; GI50 (PC-3 [34]): 250 nM; growth, % of control at 10 µM (NCI-H23 [35]): -9.2%; growth, % of control at 3 µM (NUGC-3 [36]): 9.7% |
| 100 | > 10000 | C=CC[N+](CC)(CC)CCN(C)C(=O)CCCCCCCCCCCCC | 96.8 | -21.6 | 91.2 | -7.8 | 8.6 | 12.2 | 6.6 | 16.8 | 93.2 | 96.3 | 109 | -9 | 42.6 | 82.5 | 74.2 | 85.1 | 69 | 7.8 | growth, % of control at 1 µM (NUGC-3 [21]): 1.1%; GI50 (NUGC-3 [22]): 140 nM; GI50 (NCI-H23 [23]): 240 nM; growth, % of control at 0.3 µM (PC-3 [24]): 74.9%; growth, % of control at 1 µM (NCI-H23 [25]): 24.2%; growth, % of control at 1 µM (MDA-MB-231 [26]): 28.7%; growth, % of control at 0.1 µM (HCT-15 [27]): 97.4%; growth, % of control at 3 µM (PC-3 [28]): -6%; GI50 (MDA-MB-231 [29]): 300 nM; growth, % of control at 0.1 µM (NCI-H23 [30]): 88%; growth, % of control at 10 µM (HCT-15 [31]): 57.9%; growth, % of control at 0.3 µM (NUGC-3 [32]): 45.3%; growth, % of control at 10 µM (MDA-MB-231 [33]): -11.6%; GI50 (PC-3 [34]): 210 nM; growth, % of control at 10 µM (NCI-H23 [35]): -10%; growth, % of control at 3 µM (NUGC-3 [36]): -3.5% |
